Measured values: article PMC11480954, “Molecular determinants of resurgent sodium currents mediated by Navβ4 peptide and A-type FHFs” (Frontiers in Molecular Neuroscience, 2024)

Experiments:
Nav1.8 Y387K [1] = assay: INaR, Nav1.8 mutant Y387K; assay type: cell-based, human; settings: 1 mM FHF4A peptide, + FHF2B, ND7/23; n = 8; p > 0.05 vs Nav1.8
Description: (§1) HEK293 cells and ND7/23 cells were grown under standard tissue culture conditions (5% CO2 and 37°C) in DMEM supplemented with 10% FBS, 1% penicillin and 1% streptomycin. Using Invitrogen Lipofectamine 2000, human Nav1.7 R1599P (rpNav1.7) and the mutant constructs were transiently co-transfected with Navβ1 and Navβ2 into HEK293 cells. The constructs human Nav1.8 and mutants were transiently co-transfected with FHF2B or FHF4A into ND7/23 cells. The lipofectamine-DNA mixture was added to the cell culture medium and left for 3 h after which the cells were washed with fresh medium. Cells with green fluorescent protein fluorescence were selected for whole-cell patch-clamp recordings 36–72 h after transfection.
(§2) Whole-cell voltage-clamp recordings were performed at room temperature (~21°C) using an EPC-10 amplifier and the Pulse program (HEKA Electronics). […]
(§3) INaR: INaR was elicited by repolarizing voltage steps from +20 to −80 mV for 100 ms (or 200 ms) in −5 mV increments, following a 20-ms depolarizing potential of +30 mV. […] The relative INaR in Nav1.7 and Nav1.8 was calculated by normalizing to the peak transient current elicited at −10 or 0 mV.

Nav1.8 Y387K [2] = assay: Gating properties, Nav1.8 mutant Y387K; assay type: cell-based, human; settings: 1 mM FHF4A peptide
Description: as §1
(§4) Whole-cell voltage-clamp recordings were performed at room temperature (~21°C) using an EPC-10 amplifier and the Pulse program (HEKA Electronics). Fire-polished electrodes (0.7–1.0 MΩ) were fabricated from 1.7 mm capillary glass using a P-97 puller (Sutter Instruments), and the tips were coated with sticky wax (KerrLab) to reduce electrode capacitance and enable increased series resistance compensation. The pipette solution contained (in mM) 140 CsF, 1.1 EGTA, 10 NaCl, and 10 HEPES, pH 7.3. The bathing solution was (in mM) 130 mM NaCl, 30 mM TEA chloride, 1 mM MgCl2, 3 mM KCl, 1 mM CaCl2, 10 mM HEPES, and 10 mM d-glucose, pH 7.3 (adjusted with NaOH). […] The offset potential was zeroed before contacting the cell. After establishing the whole-cell recording configuration, the resting potential was held at −120 or −100 mV for 5 min to allow adequate equilibration between the micropipette solution and the cell interior. Linear leak subtraction, based on resistance estimates from four to five hyperpolarizing pulses applied before the depolarizing test potential, was used for all voltage clamp recordings. Membrane currents were usually filtered at 5 kHz and sampled at 20 kHz. […] Voltage errors were minimized using 80–95% series resistance compensation, and the capacitance artifact was canceled using the computer-controlled circuitry of the patch clamp amplifier. […] The concentration-dependent curves were fitted to a hill equation: Y = Bottom + (Top-Bottom)/(1 + 10^((LogEC50-X)*HillSlope)).
(§5) Families of sodium currents were induced by 50-ms depolarizing steps to various potentials ranging from −120 (or −100) to +40 mV in 5-mV increments. The conductance was calculated using the equation G(Nav) = I/(V - Vrev) in which I, V, and Vrev represent inward current value, membrane potential, and reversal potential, respectively. […]

[3] = molecular target: T1, human Nav1.7 R1599P (rpNav1.7) (Homo sapiens, UniProt Q15858, R1610P); assay: Long-term inactivation of rpNav1.7; assay type: cell-based
T1 construct: expressed in transfected cells; host or cells: HEK293 cells, transient transfection with pcDNA3.1 construct
T1 sequence (Q15858 1-1977 isoform Q15858-3 R1599P): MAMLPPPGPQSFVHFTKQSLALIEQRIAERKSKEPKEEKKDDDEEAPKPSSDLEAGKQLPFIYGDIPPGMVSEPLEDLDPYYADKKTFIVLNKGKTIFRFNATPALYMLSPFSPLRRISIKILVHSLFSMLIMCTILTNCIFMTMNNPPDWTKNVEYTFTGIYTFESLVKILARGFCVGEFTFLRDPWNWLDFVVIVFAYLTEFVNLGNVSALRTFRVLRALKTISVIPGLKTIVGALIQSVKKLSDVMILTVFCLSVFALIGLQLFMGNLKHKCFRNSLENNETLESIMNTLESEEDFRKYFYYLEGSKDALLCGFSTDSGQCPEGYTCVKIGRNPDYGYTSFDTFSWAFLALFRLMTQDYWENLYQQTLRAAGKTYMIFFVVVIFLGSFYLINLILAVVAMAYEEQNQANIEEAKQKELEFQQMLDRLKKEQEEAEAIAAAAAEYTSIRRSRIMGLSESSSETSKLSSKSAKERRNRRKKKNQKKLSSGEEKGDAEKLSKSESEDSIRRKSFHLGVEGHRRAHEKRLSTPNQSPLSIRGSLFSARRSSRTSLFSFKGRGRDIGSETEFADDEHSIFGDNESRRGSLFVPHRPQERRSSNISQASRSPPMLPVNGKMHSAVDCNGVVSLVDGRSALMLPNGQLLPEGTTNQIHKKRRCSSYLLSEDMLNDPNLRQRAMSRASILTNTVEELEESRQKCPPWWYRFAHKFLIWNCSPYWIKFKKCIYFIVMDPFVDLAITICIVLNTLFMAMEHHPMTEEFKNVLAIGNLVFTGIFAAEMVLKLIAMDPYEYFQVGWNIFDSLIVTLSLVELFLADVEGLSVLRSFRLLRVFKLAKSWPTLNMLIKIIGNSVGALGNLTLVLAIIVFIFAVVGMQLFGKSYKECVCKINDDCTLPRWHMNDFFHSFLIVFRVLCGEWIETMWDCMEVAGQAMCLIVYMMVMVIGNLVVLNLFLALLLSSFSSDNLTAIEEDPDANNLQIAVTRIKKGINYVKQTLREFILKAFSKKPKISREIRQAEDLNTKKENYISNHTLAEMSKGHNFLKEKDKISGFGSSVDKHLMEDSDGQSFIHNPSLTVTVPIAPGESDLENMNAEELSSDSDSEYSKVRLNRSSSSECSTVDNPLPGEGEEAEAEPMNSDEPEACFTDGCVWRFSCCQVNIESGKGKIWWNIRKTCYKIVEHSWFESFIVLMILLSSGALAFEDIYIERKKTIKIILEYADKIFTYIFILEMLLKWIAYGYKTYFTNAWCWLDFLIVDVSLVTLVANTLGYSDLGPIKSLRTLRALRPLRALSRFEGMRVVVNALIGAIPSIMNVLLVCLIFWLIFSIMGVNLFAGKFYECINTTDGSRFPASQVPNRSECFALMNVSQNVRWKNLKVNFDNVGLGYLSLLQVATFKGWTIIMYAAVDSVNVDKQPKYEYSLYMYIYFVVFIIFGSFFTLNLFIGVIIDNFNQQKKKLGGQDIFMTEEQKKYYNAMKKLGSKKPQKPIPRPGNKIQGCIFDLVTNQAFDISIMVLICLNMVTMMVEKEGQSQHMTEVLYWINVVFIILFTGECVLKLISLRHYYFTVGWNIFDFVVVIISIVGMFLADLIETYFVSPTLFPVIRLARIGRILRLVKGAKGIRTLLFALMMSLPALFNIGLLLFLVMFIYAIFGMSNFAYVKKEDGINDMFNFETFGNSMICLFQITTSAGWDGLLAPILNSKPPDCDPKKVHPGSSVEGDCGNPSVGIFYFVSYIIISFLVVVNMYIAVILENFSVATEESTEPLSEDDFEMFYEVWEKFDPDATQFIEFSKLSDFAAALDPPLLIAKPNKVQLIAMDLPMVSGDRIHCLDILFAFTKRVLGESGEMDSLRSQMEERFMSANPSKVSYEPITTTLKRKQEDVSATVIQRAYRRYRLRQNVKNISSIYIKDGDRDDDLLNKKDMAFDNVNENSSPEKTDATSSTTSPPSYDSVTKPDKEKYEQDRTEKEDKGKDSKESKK
T1 sequence (Q07699 19-218 partner): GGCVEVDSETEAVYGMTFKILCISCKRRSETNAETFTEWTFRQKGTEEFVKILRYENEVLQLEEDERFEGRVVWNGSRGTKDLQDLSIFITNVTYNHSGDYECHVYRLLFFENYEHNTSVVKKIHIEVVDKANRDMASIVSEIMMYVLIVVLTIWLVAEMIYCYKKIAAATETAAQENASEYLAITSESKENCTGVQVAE
T1 sequence (O60939 30-215 partner): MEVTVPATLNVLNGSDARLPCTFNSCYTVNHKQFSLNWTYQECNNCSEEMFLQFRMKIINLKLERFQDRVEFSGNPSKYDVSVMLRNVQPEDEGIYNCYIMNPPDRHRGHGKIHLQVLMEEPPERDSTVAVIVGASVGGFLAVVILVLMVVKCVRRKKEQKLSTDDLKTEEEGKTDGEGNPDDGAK

Nav1.8 N891S = assay: INaR, Nav1.8 mutant N891S; assay type: cell-based, human; settings: 1 mM FHF4A peptide, + FHF2B, ND7/23; −80 to +20 mV; n = 6
Description: as §1, §2, §3

human Nav1.8 = assay: INaR, Nav1.8 co-expressed with FHF2B; assay type: cell-based
Description: as §1, §4, §3

Nav1.8 [4] = settings: ref Xiao et al., 2022; cited from earlier work
Description: Next, we investigated if FHF4A, another INaR mediator reported recently ([White et al., 2019]; [Xiao et al., 2022]), shares the receptor site in VGSCs with Navβ4 peptide. […] They consist of a long N-terminus, an FGF-like β-trefoil core, and a short C-terminus ([Goldfarb, 2005]). They display an intrinsic capability to generate INaR, to a varying extent, in Nav1.8 and Nav1.9.

Nav1.8 N390K = assay: Gating properties, Nav1.8 mutant N390K; assay type: cell-based, human; settings: 1 mM FHF4A peptide
Description: as §1, §4, §5

Nav1.8 [5] = settings: n = 6, ref Xiao et al., 2022; cited from earlier work
Description: Increased INaR may result from destabilizing fast inactivation or increasing “window currents” of VGSCs ([Xiao et al., 2019]).

Nav1.8 F1710K = assay: Gating properties, Nav1.8 mutant F1710K; assay type: cell-based, human
Description: as §1, §4
(§6) Families of sodium currents were induced by 50-ms depolarizing steps to various potentials ranging from −120 (or −100) to +40 mV in 5-mV increments. The conductance was calculated using the equation G(Nav) = I/(V - Vrev) in which I, V, and Vrev represent inward current value, membrane potential, and reversal potential, respectively.
(§7) Voltage dependence of steady-state inactivation was estimated using a standard double pulse protocol in which sodium currents were induced by a 50-ms depolarizing potential of 0 mV following a 500-ms prepulse at potentials that ranged from −150 to +10 mV with a 10-mV increment. Currents were plotted as a fraction of the maximum peak current. To obtain the midpoint voltages (V1/2) and slope factor (k), the curves of both steady-state activation and inactivation were fitted to a Boltzmann function.

Nav1.8 Y1717K [6] = assay: INaR, Nav1.8 mutant Y1717K; assay type: cell-based, human; settings: 1 mM FHF4A peptide, + FHF2B, ND7/23; n = 10; p > 0.05 vs Nav1.8
Description: as §1, §2, §3

Nav1.8 [7] = settings: ref Xiao et al., 2022; cited from earlier work; remark: listed apart in the source
Description: This mechanism requires that the peptides compete with the fast inactivation particle to block open VGSCs at strong positive potentials and unblocks upon repolarization so that the channels can reconduct ([Cannon and Bean, 2010]).

Nav1.8 Y1717K [8] = assay: Gating properties, Nav1.8 mutant Y1717K; assay type: cell-based, human
Description: as §1, §4, §6, §7

[9] = Nav1.8 + FHF2B, ND7/23, 1 mM FHF4A peptide

AAAIASGLIRQKRQAREQHW [FHF4A peptide, synthetic 20-residue peptide from FHF4A A2 – W21]
average INaR amplitude at −15 mV, Y387K (Nav1.8 Y387K [1]): 5.3% ± 0.5%
V1/2 of steady-state inactivation, Y387K vs Nav1.8 (Nav1.8 Y387K [2]): None of four lysine-mutations significantly changed the V1/2 value of steady-state inactivation
Activation (V1/2), Y387K (Nav1.8 Y387K [2]; + FHF2B, ND7/23, n = 10): −9.9 ± 2.1 (10) mV
Inactivation (V1/2), Y387K (Nav1.8 Y387K [2]; + FHF2B, ND7/23, n = 10): −30.7 ± 1.5 (10) mV
INaP, Y387K (Nav1.8 Y387K [2]; end of 50-ms pulse of +10 mV, normalized to peak transient current, n = 8): 3.6 ± 0.9 (8) %
effect on long-term inactivation of rpNav1.7 ([3]; 1 mM FHF4A peptide, HEK293): evidently enhanced accumulation of long-term inactivation of rpNav1.7
fraction of the current elicited at the 6th pulse ([3]; rpNav1.7, HEK293, 1 mM, six 16-ms pulses of −10 mV from −100 mV, 40-ms interpulse, scramble n = 6, FHF4A peptide n = 5, p < 0.0001): 0.21 ± 0.03
INaR, N891S (Nav1.8 N891S): no INaR was induced
average FHF4A peptide mediated INaR amplitude (peak, −15 mV), Nav1.8 (human Nav1.8; Nav1.8 + FHF2B, ND7/23, 500 nM TTX, 1 mM peptide intracellular, measured after 20 ms into repolarization, mean ± S.E., n = 9): 4.8% ± 0.5%
potential at which INaR peaked (human Nav1.8; [9]): −15 mV
range of voltages at which INaR observed (human Nav1.8; [9]): −40 to +20 mV
saturation of effect on INaR (human Nav1.8; concentration-dependent curve, 1 mM): did not saturate at 1 mM
Nav1.8 INaR reconstitution by FHF4A A2 – W21 peptide (Nav1.8 [4]): could reconstitute the Nav1.8 INaR mediated by full-length FHF4A
V1/2 of steady-state inactivation, N390K vs Nav1.8 (Nav1.8 N390K): None of four lysine-mutations significantly changed the V1/2 value of steady-state inactivation
Activation (V1/2), N390K (Nav1.8 N390K; + FHF2B, ND7/23, n = 7): −9.7 ± 1.8 (7) mV
Inactivation (V1/2), N390K (Nav1.8 N390K; + FHF2B, ND7/23, n = 7): −33.5 ± 1.0 (7) mV
INaP, N390K (Nav1.8 N390K; end of 50-ms pulse of +10 mV, normalized to peak transient current, n = 7, *p < 0.05): 5.6 ± 2.2^* (7) %
FHF4A peptide mediated Nav1.8 INaR without FHF2B (control) (Nav1.8 [5]): 2.5% ± 0.4%
V1/2 of steady-state inactivation, F1710K vs Nav1.8 (Nav1.8 F1710K; 1 mM FHF4A peptide): None of four lysine-mutations significantly changed the V1/2 value of steady-state inactivation
Inactivation (V1/2), F1710K (Nav1.8 F1710K; 1 mM FHF4A peptide, + FHF2B, ND7/23, n = 7): −41.1 ± 5.5 (7) mV
Activation (V1/2), F1710K (Nav1.8 F1710K; 1 mM FHF4A peptide, + FHF2B, ND7/23, n = 7, ***p < 0.0001): 19.9 ± 2.0*** (7) mV
INaP, F1710K (Nav1.8 F1710K; end of 50-ms pulse of +10 mV, normalized to peak transient current, 1 mM FHF4A peptide, n = 6, **p < 0.01): 0.8 ± 0.9^** (6) %
positive shift of voltage dependence of activation by F1710K (Nav1.8 F1710K; vs Nav1.8, 1 mM FHF4A peptide): 31.0 mV
average INaR amplitude at −15 mV, Y1717K (Nav1.8 Y1717K [6]): 4.6% ± 0.8%
effect on fast inactivation after Nav1.8 opens (Nav1.8 [7]): accelerates fast inactivation after Nav1.8 opens
V1/2 of steady-state inactivation, Y1717K vs Nav1.8 (Nav1.8 Y1717K [8]; 1 mM FHF4A peptide): None of four lysine-mutations significantly changed the V1/2 value of steady-state inactivation
Inactivation (V1/2), Y1717K (Nav1.8 Y1717K [8]; 1 mM FHF4A peptide, + FHF2B, ND7/23, n = 10): −38.4 ± 1.0 (10) mV
Activation (V1/2), Y1717K (Nav1.8 Y1717K [8]; 1 mM FHF4A peptide, + FHF2B, ND7/23, n = 10, ***p < 0.0001): 7.3 ± 1.5*** (10) mV
INaP, Y1717K (Nav1.8 Y1717K [8]; end of 50-ms pulse of +10 mV, normalized to peak transient current, 1 mM FHF4A peptide, n = 10): 5.4 ± 3.8 (10) %
positive shift of voltage dependence of activation by Y1717K (Nav1.8 Y1717K [8]; vs Nav1.8, 1 mM FHF4A peptide): 18.4 mV
